This is an account of results in patent US10851115B2, “Heterocyclic compounds as RSV inhibitors” (Enanta Pharmaceuticals, Inc., priority 2017, dated 2020).

The test deals with Human RSV-A (“Long” strain). Put plainly: RSV in vitro cytoprotection assay in HEp-2 cells (ATPlite readout). Type of test: cell-based. The conditions noted are these: human respiratory syncytial virus, 96 h; HEp-2 cells, 4-day incubation, ATPlite; read-out: Human RSV-A (“Long” strain) EC50. The text has this:
RSV is a single stranded negative sense RNA virus that causes respiratory tract infections which can be dangerous to infants, the elderly, and immunosuppressed individuals. Currently there is no vaccine, and therapeutic options are both costly and of limited effectiveness. These approved treatments are Ribavirin, and Palivizumab/Synagis (a monoclonal antibody). RSV has two genotypes, A and B, which differ primarily in the structure of the virus' surface “G” attachment protein. Our current primary screen focusses on RSV-A and uses an in vitro cytoprotection assay where compounds are added in 2-fold dilutions to cells which are then subjected to fully replicative viral particles. Cell viability is measured several days later along with separate measurements of compound cytotoxicity. This report focuses on the results of our most recent screening of compounds.
HEp-2 cells, (originally derived from tumors grown in irradiated-cortisonised weanling rats that had been injected with epidermoid carcinoma tissue from a person's larynx, but later found to be indistinguishable from HeLa cells by PCR DNA analysis), were used for the culturing of genotype A, “Long” strain RSV. Flasks were inoculated with RSV and viral stocks were collected once cytopathic effect (CPE) was greater than 90%. Viral stocks in 25% sucrose media were snap frozen using liquid nitrogen to increase viral stability. Viral stock titers were quantified by tissue culture infectious dose 50% (TCID50) using 8,000 cells per well and 3-fold viral dilutions across a 96-well plate, cultured for 4 days.
Following extensive parameter testing, the final assay is run as follows: HEp-2 cells are seeded into the inner 60 wells of a 96-well plate at 8,000 cells per well in a volume of 50 μL using Growth Media (DMEM without phenol red, 1% L-Glut, 1% Penn/Strep, 1% nonessential amino acids, 10% FBS). 2-Fold serial dilutions of control and test compounds are added to the wells in duplicate in a total volume of 25 μL. Viral stock is then added to the wells in a volume of 25 μL, bringing the total volume of each well to 100 μL. Each 96-well plate has a control column of 6 wells with cells and virus but no compound (negative control, max CPE), a column with cells but no compound or virus (positive control, minimum CPE), and a column with no cells or virus or compound (background plate/reagent control). The control wells with cells but no virus are given an additional 25 uL of growth media containing an equal quantity of sucrose as those wells receiving the viral stock in order to keep consistent in media and volume conditions. The outer wells of the plate are filled with 125 μL of growth media to act as a thermal and evaporative moat around the test wells. Following a 4-day incubation period, the plates are read using ATPlite (50 uL added per well), which quantifies the amount of ATP (a measure of cell health) present in each well. Assay plates are read using the Envision luminometer. In parallel, cytotoxicity is examined on an additional 96-well plate treated in an identical manner, but substituting the 25 μL of viral stock for 25 μL of growth media. […] EC50 ranges are as follows: A<0.01 μM; B 0.01-0.05 μM; C>0.05 μM.
For orientation: Cellular ATP, detected with luciferase, serves as a proxy for viable cell number.
With `Cc1ccc(C(=O)Nc2ccc(C(=O)N3CCc4c(sc(-c5nc6ccc(F)cc6[nH]5)c4F)-c4ncccc43)cc2)c(N2CC3(CCOCC3)C2)n1` [Example 88], the EC50 was less than 10 nM.
Under `Cc1cnc(N2CCC3(CC2)COC3)c(C(=O)Nc2ccc(C(=O)N3CCc4cc(C(=O)Nc5c(F)cccc5F)sc4-c4ncccc43)cc2)c1` [Example 89] stands less than 10 nM; under `Cc1cnc(N2CCC3(CC2)COC3)c(C(=O)Nc2ccc(C(=O)N3CCc4cc(C(=O)Nc5ccccc5)sc4-c4ncccc43)cc2)c1` [Example 90], 10 to 50 nM; under `Cc1cnc(N2CCC3(CC2)COC3)c(C(=O)Nc2ccc(C(=O)N3CCc4cc(C(=O)Nc5c(Cl)cccc5Cl)sc4-c4ncccc43)cc2)c1` [Example 91], less than 10 nM.
As to `Cc1cnc(N2CCC3(CC2)COC3)c(C(=O)Nc2ccc(C(=O)N3CCc4cc(C(=O)Nc5c(C)cccc5C#N)sc4-c4ncccc43)cc2)c1` [Example 92], the EC50 is 10 to 50 nM.
Consider `Cc1cnc(N2CCC3(CC2)COC3)c(C(=O)Nc2ccc(C(=O)N3CCc4cc(C(=O)Nc5c(F)cccc5Cl)sc4-c4ncccc43)cc2)c1` [Example 93], for which the 50% effective concentration (EC50) was less than 10 nM.
Under `Cc1cnc(N2CCC3(CC2)COC3)c(C(=O)Nc2ccc(C(=O)N3CCc4cc(C(=O)Nc5c(F)cccc5C(F)(F)F)sc4-c4ncccc43)cc2)c1` [Example 94] stands 10 to 50 nM; under `Cc1cnc(N2CCC3(CC2)COC3)c(C(=O)Nc2ccc(C(=O)N3CCc4cc(C(=O)Nc5ncccc5F)sc4-c4ncccc43)cc2)c1` [Example 95], 10 to 50 nM.
On to `Cc1cnc(N2CCC3(CC2)COC3)c(C(=O)Nc2ccc(C(=O)N3CCc4cc(-c5nc6cccc(F)c6[nH]5)sc4-c4ncccc43)cc2)c1` [Example 97], for which the EC50 is 10 to 50 nM.
The figure for `Cc1cnc(N2CCC3(CC2)COC3)c(C(=O)Nc2ccc(C(=O)N3CCc4cc(C(=O)Nc5c(C)cccc5F)sc4-c4ncccc43)cc2)c1` [Example 98] is less than 10 nM; for `Cc1cnc(N2CC3(CCOCC3)C2)c(C(=O)Nc2ccc(C(=O)N3CCc4cc(C(=O)Nc5c(F)cccc5F)oc4-c4ncc(F)cc43)cc2)c1` [Example 99] it is less than 10 nM.
As for `Cc1cnc(N2CC3(CCOCC3)C2)c(C(=O)Nc2ccc(C(=O)N3CCc4cc(C(=O)Nc5c(Cl)cccc5Cl)oc4-c4ncc(F)cc43)cc2)c1` [Example 100], the EC50 is 10 to 50 nM.
`Cc1cnc(N2CC3(CCOCC3)C2)c(C(=O)Nc2ccc(C(=O)N3CCc4cc(C(=O)Nc5c(F)cccc5Cl)oc4-c4ncc(F)cc43)cc2)c1` [Example 101]: the half-maximal effective concentration (EC50) was less than 10 nM.
For `Cc1cnc(N2CC3(CCOCC3)C2)c(C(=O)Nc2ccc(C(=O)N3CCc4cc(C(=O)Nc5c(F)cccc5C(F)(F)F)oc4-c4ncc(F)cc43)cc2)c1` [Example 102], the 50% effective concentration (EC50) was 10 to 50 nM.
The figure for `Cc1cnc(N2CC3(CCOCC3)C2)c(C(=O)Nc2ccc(C(=O)N3CCc4cc(-c5nc6ccccc6[nH]5)oc4-c4ncc(F)cc43)cc2)c1` [Example 103] is 10 to 50 nM; for `O=C(Nc1c(F)cccc1F)c1cc2c(o1)-c1ncc(F)cc1N(C(=O)c1ccc(NC(=O)c3cc4c(nc3N3CC5(CCOCC5)C3)CCC4)cc1)CC2` [Example 104] it is less than 10 nM.
On to `O=C(Nc1c(Cl)cccc1Cl)c1cc2c(o1)-c1ncc(F)cc1N(C(=O)c1ccc(NC(=O)c3cc4c(nc3N3CC5(CCOCC5)C3)CCC4)cc1)CC2` [Example 105], for which the concentration giving a half-maximal response (EC50) was less than 10 nM.
The figure for `O=C(Nc1c(F)cccc1Cl)c1cc2c(o1)-c1ncc(F)cc1N(C(=O)c1ccc(NC(=O)c3cc4c(nc3N3CC5(CCOCC5)C3)CCC4)cc1)CC2` [Example 106] is less than 10 nM.
Regarding `O=C(Nc1c(F)cccc1C(F)(F)F)c1cc2c(o1)-c1ncc(F)cc1N(C(=O)c1ccc(NC(=O)c3cc4c(nc3N3CC5(CCOCC5)C3)CCC4)cc1)CC2` [Example 107], the 50% effective concentration (EC50) is less than 10 nM.
The figure for `O=C(Nc1ccc(C(=O)N2CCc3cc(-c4nc5ccccc5[nH]4)oc3-c3ncc(F)cc32)cc1)c1cc2c(nc1N1CC3(CCOCC3)C1)CCC2` [Example 108] is 10 to 50 nM.
The figure for `Cc1cnc(N2CC3(CCOCC3)C2)c(C(=O)Nc2ccc(C(=O)N3CCc4cc(-c5ccc[nH]c5=O)oc4-c4ncc(F)cc43)cc2)c1` [Example 109] is 10 to 50 nM; for `Cc1cnc(N2CC3(CCOCC3)C2)c(C(=O)Nc2ccc(C(=O)N3CCc4cc(-c5ccc[nH]c5=O)sc4-c4ncc(F)cc43)cc2)c1` [Example 110] it is 10 to 50 nM; for `Cc1cnc(N2CC3(CCOCC3)C2)c(C(=O)Nc2ccc(C(=O)N3CCc4cc(C(=O)Nc5c(F)cccc5F)oc4-c4cccnc43)cc2)c1` [Example 111] it is 10 to 50 nM.
Regarding `Cc1cnc(N2CC3(CCOCC3)C2)c(C(=O)Nc2ccc(C(=O)N3CCc4cc(C(=O)Nc5c(C)cccc5F)oc4-c4cccnc43)cc2)c1` [Example 112], the half-maximal effective concentration (EC50) was greater than 50 nM.
For the compound `Cc1cnc(N2CC3(CCOCC3)C2)c(C(=O)Nc2ccc(C(=O)N3CCc4cc(C(=O)Nc5c(F)cccc5Cl)oc4-c4cccnc43)cc2)c1` [Example 113], the EC50 was greater than 50 nM.
The figure for `Cc1cnc(N2CC3(CCOCC3)C2)c(C(=O)Nc2ccc(C(=O)N3CCc4cc(-c5nc6ccccc6[nH]5)oc4-c4cccnc43)cc2)c1` [Example 114] is greater than 50 nM; for `Cc1cnc(N2CC3(CCOCC3)C2)c(C(=O)Nc2ccc(C(=O)N3CCc4cc(C(=O)Nc5c(F)cccc5F)oc4-c4ncccc43)cc2)c1` [Example 115] it is 10 to 50 nM.
The figure for `Cc1cnc(N2CC3(CCOCC3)C2)c(C(=O)Nc2ccc(C(=O)N3CCc4cc(C(=O)Nc5c(F)cccc5Cl)oc4-c4ncccc43)cc2)c1` [Example 117] is 10 to 50 nM; for `Cc1cnc(N2CC3(CCOCC3)C2)c(C(=O)Nc2ccc(C(=O)N3CCc4cc(-c5nc6ccccc6[nH]5)oc4-c4ncccc43)cc2)c1` [Example 118] it is 10 to 50 nM; for `O=C(Nc1c(F)cccc1F)c1cc2c(o1)-c1ncccc1N(C(=O)c1ccc(NC(=O)c3cc4c(nc3N3CC5(CCOCC5)C3)CCC4)cc1)CC2` [Example 119] it is less than 10 nM.
On to `O=C(Nc1ccc(C(=O)N2CCc3cc(-c4nc5ccccc5[nH]4)oc3-c3ncccc32)cc1)c1cc2c(nc1N1CC3(CCOCC3)C1)CCC2` [Example 120], for which the EC50 is 10 to 50 nM.
Under `Cc1cnc(N2CC3(CCOCC3)C2)c(C(=O)Nc2ccc(C(=O)N3CCc4cc(C(=O)Nc5c(F)cccc5F)oc4-c4ccncc43)cc2)c1` [Example 121] stands 10 to 50 nM; under `Cc1cnc(N2CC3(CCOCC3)C2)c(C(=O)Nc2ccc(C(=O)N3CCc4cc(C(=O)Nc5c(F)cc(F)cc5F)oc4-c4ccncc43)cc2)c1` [Example 122], greater than 50 nM.
The figure for `Cc1cnc(N2CC3(CCOCC3)C2)c(C(=O)Nc2ccc(C(=O)N3CCc4cc(C(=O)Nc5c(C)cccc5F)oc4-c4ccncc43)cc2)c1` [Example 123] is greater than 50 nM; for `Cc1cnc(N2CC3(CCOCC3)C2)c(C(=O)Nc2ccc(C(=O)N3CCc4cc(-c5nc6ccccc6[nH]5)oc4-c4ccncc43)cc2)c1` [Example 124] it is greater than 50 nM.
The figure for `Cc1cnc(N2CC3(CCOCC3)C2)c(C(=O)Nc2ccc(C(=O)N3CCc4cc(C(=O)Nc5c(F)cccc5Cl)oc4-c4ccncc43)cc2)c1` [Example 125] is 10 to 50 nM; for `Cc1cnc(N2CC3(CCOCC3)C2)c(C(=O)Nc2ccc(C(=O)N3CCc4cc(C(=O)Nc5c(F)cccc5C(F)(F)F)oc4-c4ccncc43)cc2)c1` [Example 126] it is greater than 50 nM; for `Cc1cnc(N2CC3(CCOCC3)C2)c(C(=O)Nc2ccc(C(=O)N3CCc4cc(-c5nc6cccc(F)c6[nH]5)oc4-c4ccncc43)cc2)c1` [Example 127] it is greater than 50 nM.
As to `Cc1cnc(N2CC3(CCOCC3)C2)c(C(=O)Nc2ccc(C(=O)N3CCc4cc(C(=O)Nc5c(F)cccc5F)sc4-c4cc(C)sc43)cc2)c1` [Example 128], the EC50 is 10 to 50 nM.
Under `Cc1cnc(N2CC3(CCOCC3)C2)c(C(=O)Nc2ccc(C(=O)N3CCc4cc(C(=O)Nc5c(F)cc(F)cc5F)sc4-c4cc(C)sc43)cc2)c1` [Example 129] stands greater than 50 nM; under `Cc1cnc(N2CC3(CCOCC3)C2)c(C(=O)Nc2ccc(C(=O)N3CCc4cc(C(=O)Nc5c(Cl)cccc5Cl)sc4-c4cc(C)sc43)cc2)c1` [Example 130], greater than 50 nM.
Consider `Cc1cnc(N2CC3(CCOCC3)C2)c(C(=O)Nc2ccc(C(=O)N3CCc4cc(-c5nc6cccc(F)c6[nH]5)sc4-c4cc(C)sc43)cc2)c1` [Example 131], for which the 50% effective concentration (EC50) lay in the range of 10 to 50 nM.

For orientation: EC50 means the concentration giving half of the maximal effect.
